Values of other authors, collected in patent publication US7935365B2, “Glycerophospholipids for the improvement of cognitive functions” (Enzymotec, Ltd., priority 2003, dated 2011).
Where two headings read alike, the source gives them in different places.

For COC(=O)C(c1ccccc1)C1CCCCN1 (racemic) [methylphenidate, DL-threo-Methylphenidate], the “Improvement of the ADHD index, previously reported” value (Alhambra et al. (1995)) is given as “exceed 80%”.
For NC(=O)C[S+]([O-])C(c1ccccc1)c1ccccc1 (centres unmarked) [modafinil], the “Improvement of the ADHD index, previously reported” value (Rugino and Copley (2001)) is given as over 2.5 SD.
